Assay results: US12649750B2, “Macrocyclic compounds, compositions, and methods of using thereof” (Sionna Therapeutics Inc., priority 2022, dated 2026)

The molecules below were run against T1, NBD1 (Homo sapiens, UniProt P13569) (assay: Aggregation analysis using differential static light scattering (DSLS), thermal stability of NBD1 (ΔTagg)). Conditions: ΔTagg versus DMSO control, NBD1 0.2 mg/ml.
T1 construct: Purified recombinant NBD1 was produced using previously described methods; made in house
T1 sequence (P13569 423-646 limits assumed): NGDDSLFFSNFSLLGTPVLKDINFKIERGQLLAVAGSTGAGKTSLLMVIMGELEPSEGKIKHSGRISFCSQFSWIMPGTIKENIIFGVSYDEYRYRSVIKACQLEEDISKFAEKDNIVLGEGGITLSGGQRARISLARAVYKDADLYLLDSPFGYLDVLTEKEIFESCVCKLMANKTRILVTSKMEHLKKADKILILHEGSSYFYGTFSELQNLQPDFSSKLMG
Assay type: binding
Experimental: Example 386. Aggregation Analysis Using Differential Static Light Scattering (DSLS)
Purified recombinant NBD1 was produced using previously described methods (A. Schmidt, J. L. Mendoza, P. J. Thomas (2011) Biochemical and Biophysical Approaches to Probe CFTR Structure (365-376) M. D. Amaral, K. Kunzelmann (eds.), Cystic Fibrosis, Methods in Molecular Biology 741, Springer Science+Business Media). The effect of test compounds on thermal stability of NBD1 was evaluated by differential static light scattering (DSLS) using the Harbinger Stargazer-384 instrument (Epiphyte Three, Toronto, Canada). Test compounds were dissolved and diluted to desired concentrations in 100% DMSO. The compounds or DMSO controls (100 nL) were stamped into wells of a […] low volume optical plate (Corning Inc., Corning, NY) using the Echo 555 acoustic liquid handler (Labcyte Inc., San Jose, CA).
NBD1 protein was diluted to 0.2 mg/ml in S200 buffer (50 mM Tris-HCl, 150 mM NaCl, 5 mM MgCl2, 2 mM ATP, 2 mM DTT, pH7.6) containing 1% glycerol. 10 uL of protein solution was aliquoted into the 384-well plate harboring the test compounds and 10 uL mineral oil was overlaid onto the protein solution, using the epMotion robotic liquid handler (Eppendorf North America, Hauppauge, NY). After placing into the Stargazer instrument, the plate was heated at 1° C. per minute to 70° C. Images were captured from 25° C. to 70° C. every 0.5° C. At the end of the experiment run, instrument software integrated image files and analyzed data automatically. A […] regression curve was generated for each well, representing the increase in light scattering over time. A temperature of aggregation (Tagg) was calculated based on the inflection point of the curve. To better compare data across experiments the average Tagg for DMSO control wells was calculated and subtracted from values for wells containing compounds to obtain a “ΔTagg” value. These ΔTagg values reflect stabilizing efficacy of the compounds. As set forth in Table 2 below, an ΔTagg value less than or equal to 5° C. is marked “A”; a value above 5° C. and less than or equal to 10° C. is marked “B”; a value greater than 10° C. and less than or equal to 25° C. is marked “C”.
In the case of C[C@@H](Cc1cccc(C2CCCC(C)(C)CS(=O)(=O)CCc3c(c(F)cc4[nH]ccc34)Oc3ccc(F)c(c3)-c3c(C#N)cnn32)c1)C(=O)O (mixture of isomers) [Compound 151, (2S)-3-[3-(3-Cyano-23,29-difluoro-11,11-dimethyl-13,13-dioxo-25-oxa-13λ6-thia-5,6,20-triazapentacyclo[24.3.1.02,6.016,24.017,21]triaconta-1(30),2,4,16,18,21,23,26,28-nonaen-7-yl)phenyl]-2-methyl-propanoic Acid], the “DSLS 3D (100 μM ΔT)” value is reported as “A (an ΔTagg value less than or equal to 5 °C is marked “A”)”. With C[C@@H](Cc1cccc(C2CCCC(C)(C)CS(=O)(=O)CCc3c(c(F)cc4[nH]ccc34)Oc3ccc(F)c(c3)-c3nn2cc3C#N)c1)C(=O)O (mixture of isomers) [Compound 152, (2S)-3-[3-(3-Cyano-22,28-difluoro-10,10-dimethyl-12,12-dioxo-24-oxa-12λ6-thia-5,19,30-triazapentacyclo[23.3.1.12,5.015,23.016,20]triaconta-1(29),2(30),3,15,17,20,22,25,27-nonaen-6-yl)phenyl]-2-methyl-propanoic Acid] the “DSLS 3D (100 μM ΔT)” value was “C (a value greater than 10 °C and less than or equal to 25 °C is marked “C”)”. In the case of C[C@H](Cc1cccc(C2NCC(F)(F)CCS(=O)(=O)CCc3c(c(F)c(F)c4[nH]ccc34)Oc3ccc(F)c(c3)-c3nc2nn3C)c1)C(=O)O (mixture of isomers) [Compound 380, (2R)-2-Methyl-3-[3-(9,9,21,22,28-pentafluoro-3-methyl-12,12-dioxo-24-oxa-12λ6-thia-3,4,7,19,30-pentazapentacyclo[23.3.1.12,5.015,23.016,20]triaconta-1(29),2(30),4,15,17,20,22,25,27-nonaen-6-yl)phenyl]propanoic Acid], the “DSLS 3D (100 μM ΔT)” value is reported as “A (an ΔTagg value less than or equal to 5 °C is marked “A”)”. CC1(C)CS(=O)(=O)CCc2c(c(F)cc3[nH]ccc23)Oc2ccc(F)c(c2)-c2ccnn2C(c2cccc(CCC(=O)O)c2)CCO1 (single isomer, unassigned) [Compound 88, 3-[3-(23,29-Difluoro-11,11-dimethyl-13,13-dioxo-10,25-dioxa-13λ6-thia-5,6,20-triazapentacyclo[24.3.1.02,6.016,24.017,21]triaconta-1(30),2,4,16,18,21,23,26,28-nonaen-7-yl)phenyl]propanoic Acid] was tested, and the “DSLS 3D (100 μM ΔT)” value was “A (an ΔTagg value less than or equal to 5 °C is marked “A”)”. Cn1nc2nc1-c1cc(ccc1F)Oc1c(F)cc3[nH]ccc3c1CCS(=O)(=O)CC(C)(C)COCC2(C)c1cccc(CCC(=O)O)c1 (single isomer, unassigned) [Compound 89A, 3-[3-(22,28-difluoro-3,6,10,10-tetramethyl-12,12-dioxo-8,24-dioxa-12λ6-thia-3,4,19,30-tetrazapentacyclo[23.3.1.12,5.015,23.016,20]triaconta-1(29),2(30),4,15,17,20,22,25,27-nonaen-6-yl)phenyl]propanoic Acid] was tested, and the “DSLS 3D (100 μM ΔT)” value was “C (a value greater than 10 °C and less than or equal to 25 °C is marked “C”)”. With Cn1nc2nc1-c1cc(ccc1F)Oc1c(F)cc3[nH]ccc3c1CCS(=O)(=O)CC(C)(C)COCC2(C)c1cccc(CCC(=O)O)c1 (single isomer, unassigned) [Compound 89B, 3-[3-(22,28-difluoro-3,6,10,10-tetramethyl-12,12-dioxo-8,24-dioxa-12λ6-thia-3,4,19,30-tetrazapentacyclo[23.3.1.12,5.015,23.016,20]triaconta-1(29),2(30),4,15,17,20,22,25,27-nonaen-6-yl)phenyl]propanoic Acid] the “DSLS 3D (100 μM ΔT)” value was “A (an ΔTagg value less than or equal to 5 °C is marked “A”)”. For Cn1nc2nc1-c1cc(ccc1F)Oc1c(F)cc3[nH]ccc3c1CCS(=O)(=O)CC(C)(C)CCCC2(C)c1cccc(C(O)CO)c1 (single isomer, unassigned) [Compound 90A, 1-[3-(22,28-difluoro-3,6,10,10-tetramethyl-12,12-dioxo-24-oxa-12λ6-thia-3,4,19,30-tetrazapentacyclo[23.3.1.12,5.015,23.016,20]triaconta-1(29),2(30),4,15,17,20,22,25,27-nonaen-6-yl)phenyl]ethane-1,2-diol], the “DSLS 3D (100 μM ΔT)” value was “C (a value greater than 10 °C and less than or equal to 25 °C is marked “C”)”. Cn1nc2nc1-c1cc(ccc1F)Oc1c(F)cc3[nH]ccc3c1CCS(=O)(=O)CC(C)(C)CCCC2(C)c1cccc(C(O)CO)c1 (single isomer, unassigned) [Compound 90B, 1-[3-(22,28-difluoro-3,6,10,10-tetramethyl-12,12-dioxo-24-oxa-12λ6-thia-3,4,19,30-tetrazapentacyclo[23.3.1.12,5.015,23.016,20]triaconta-1(29),2(30),4,15,17,20,22,25,27-nonaen-6-yl)phenyl]ethane-1,2-diol] was tested, and the “DSLS 3D (100 μM ΔT)” value was “A (an ΔTagg value less than or equal to 5 °C is marked “A”)”. In the case of CC(Cc1cccc(C2(CNCC(F)F)CCCC(C)(C)CS(=O)(=O)CCc3c(c(F)cc4[nH]ccc34)Oc3ccc(F)c(c3)-c3nc2nn3C)c1)C(=O)O (single isomer, unassigned) [Compound 137A, 3-[3-[6-[(2,2-difluoroethylamino)methyl]-22,28-difluoro-3,10,10-trimethyl-12,12-dioxo-24-oxa-12λ6-thia-3,4,19,30-tetrazapentacyclo[23.3.1.12,5.015,23.016,20]triaconta-1(29),2(30),4,15,17,20,22,25,27-nonaen-6-yl]phenyl]-2-methyl-propanoic Acid], the “DSLS 3D (100 μM ΔT)” value is reported as “C (a value greater than 10 °C and less than or equal to 25 °C is marked “C”)”. C[C@@H](Cc1cncc(C2(C)CCCC(C)(C)CS(=O)(=O)CCc3c(c(F)cc4[nH]ccc34)Oc3ccnc(c3)-c3nc2nn3C)c1)C(=O)O (single isomer, unassigned) [Compound 299A] was tested, and the “DSLS 3D (100 μM ΔT)” value was “A (an ΔTagg value less than or equal to 5 °C is marked “A”)”. In the case of C[C@@H](Cc1cncc(C2(C)CCCC(C)(C)CS(=O)(=O)CCc3c(c(F)cc4[nH]ccc34)Oc3ccnc(c3)-c3nc2nn3C)c1)C(=O)O (single isomer, unassigned) [Compound 299B], the “DSLS 3D (100 μM ΔT)” value is reported as “B (a value above 5 °C and less than or equal to 10 °C is marked “B”)”. For C[C@@H](Cc1cncc(C2(C)CCCC(C)(C)CS(=O)(=O)CCc3c(c(F)c(F)c4[nH]ccc34)Oc3ccnc(c3)-c3nc2nn3C)n1)C(=O)O (single isomer, unassigned) [Compound 300A], the “DSLS 3D (100 μM ΔT)” value was “A (an ΔTagg value less than or equal to 5 °C is marked “A”)”. For C[C@@H](Cc1cncc(C2(C)CCCC(C)(C)CS(=O)(=O)CCc3c(c(F)c(F)c4[nH]ccc34)Oc3ccnc(c3)-c3nc2nn3C)n1)C(=O)O (single isomer, unassigned) [Compound 300B], the “DSLS 3D (100 μM ΔT)” value was “A (an ΔTagg value less than or equal to 5 °C is marked “A”)”. With Cn1nc2nc1-c1cc(ccc1F)[S+]([O-])c1c(F)cc3[nH]ccc3c1CCS(=O)(=O)CC(C)(C)CCC[C@]2(C)c1cccc([C@H](O)CO)c1 (single isomer, unassigned) [Compound 302B] the “DSLS 3D (100 μM ΔT)” value was “B (a value above 5 °C and less than or equal to 10 °C is marked “B”)”. With Cn1nc2nc1-c1cc(ccc1F)[S+]([O-])c1c(F)c(F)c3[nH]ccc3c1CCS(=O)(=O)CC(C)(C)CCC[C@]2(C)c1cccc(CC2(C(=O)O)CC2)c1 (single isomer, unassigned) [Compound 303B] the “DSLS 3D (100 μM ΔT)” value was “A (an ΔTagg value less than or equal to 5 °C is marked “A”)”. With Cn1nc2nc1-c1cc(ccn1)[S+]([O-])c1c(F)c(F)c3[nH]ccc3c1CCS(=O)(=O)CC(C)(C)CCC[C@]2(C)c1cccc(CC2(C(=O)O)CC2)c1 (single isomer, unassigned) [Compound 309] the “DSLS 3D (100 μM ΔT)” value was “B (a value above 5 °C and less than or equal to 10 °C is marked “B”)”. In the case of C[C@@H](Cc1cccc(C2(C)CCCC(C)(C)CS(=O)(=O)CCc3c(c(F)cc4[nH]ccc34)Sc3ccnc(c3)-c3nc2nn3C)n1)C(=O)O (single isomer, unassigned) [Compound 314A], the “DSLS 3D (100 μM ΔT)” value is reported as “A (an ΔTagg value less than or equal to 5 °C is marked “A”)”. With C[C@@H](Cc1cccc(C2(C)CCCC(C)(C)CS(=O)(=O)CCc3c(c(F)cc4[nH]ccc34)Sc3ccnc(c3)-c3nc2nn3C)n1)C(=O)O (single isomer, unassigned) [Compound 314B] the “DSLS 3D (100 μM ΔT)” value was “B (a value above 5 °C and less than or equal to 10 °C is marked “B”)”. For C[C@@H](Cc1cccc(C2(C)CCCC(C)(C)CS(=O)(=O)CCc3c(c(F)cc4[nH]ccc34)[S+]([O-])c3ccnc(c3)-c3nc2nn3C)n1)C(=O)O (single isomer, unassigned) [Compound 315A], the “DSLS 3D (100 μM ΔT)” value was “A (an ΔTagg value less than or equal to 5 °C is marked “A”)”.
